The series in a line: Sedimentation equilibrium analytical ultracentrifugation. It is filed as physicochemical. Conditions: 10 mM sodium phosphate; for MW (sedimentation equilibrium, SEDPHAT): pH 7.4, 20 °C, global fit. As for the experimental part: Sedimentation equilibrium (SE) experiments were performed to determine the molecular weight of proHD6. The proHD6 samples were prepared as described in the SV experiments with modification. In a typical set of experiments, proHD6 solutions in Milli-Q water (≈100 μL) prepared in microcentrifuge tubes were lyophilized to dryness. An aliquot (110 μL, pre-filtered, 0.22 μm filter) of 10 mM sodium phosphate buffer adjusted to pH 7.4 was added to each tube to afford solutions with varying concentrations of proHD6 (30, 60, and 120 μM) and transferred to AUC sample cells. The pH of each solution was measured to confirm that each solution remained at pH 7.4. Based on the sedimentation coefficients obtained from the SV experiments, equilibrium profiles were obtained at rotor speeds of 30 000, 36 000, and 42 000 rpm. Once equilibrium was established, two scans with five replicates were recorded. The absorption wavelength for optical detection was 280 nm, and the instrument was maintained at 20 °C.
The details of the experimental setup and data analysis are reported elsewhere.[52] SEDNTERP[53] was employed to calculate the buffer viscosity (η), buffer density (ρ), and the partial specific volume (value of proHD6 at 20 °C) as described in the SV section. The molecular weight of proHD6 was determined by global fitting of the multispeed equilibrium data across all loading concentrations at pH 7.4 using SEDPHAT.[31] The Species Analysis model with mass conservation was employed for data analysis. The bottom of the sample sector was assigned as a floating parameter. To further evaluate whether each least-squares curve-fitting procedure converged to a global minimum, the alternate methods of Simplex, Marquardt–Levenberg, and simulated annealing were employed to assess any change in the global reduced chi-squared value.
Table S5. Molecular weight fitting of SE data for proHD6 by using SEDPHAT.a 95% Confidence Standard Global Reduced Critical Chi-Squared
Sample MW (Da) Intervalb Deviationb Chi-Squared Valuec […]
a All samples were in 10 mM sodium phosphate, pH 7.4. Global fitting used partial specific volume (v) at 20 °C, a solvent density ( ρ) of 0.99967 g/mL, and a solvent viscosity (η) of 1.0061 cP. Viscosity units are in centipoise (cP) (1 poise = 1 gŸ[…] cm-1Ÿ[…]s-1). b Calculated from 1000 iterations of Monte-Carlo analysis. c Calculated at a 95% confidence level.

On to “EPLQAEDDPLQAKAYEADAQEQRGANDQDFAVSFAEDASSSLRALGSTRAFTCHCRRSCYSTEYSYGTCTVMGINHRFCCL (disulfide (positions not given here)) [proHD6, 81-residue propeptide of human α-defensin 6, recombinant, from His6-SUMO-proHD6]”, for which the “molecular weight in solution (sedimentation equilibrium, global analysis)” value (pH 7.4, 20 °C, 30, 60, 120 µM proHD6, 30 000/36 000/42 000 rpm, A280, SEDPHAT, SD ±230 Da, 95% interval 15 059-15 946 Da) is recorded as 15 549 Da. Moreover, the “MW (sedimentation equilibrium, SEDPHAT)” value by setting is: (Sample 1) 15176 Da; (Sample 2) 15351 Da; (Sample 3) 15549 Da.

These data come from paper PMC4827351 (Chemical Science, 2015).
